What was measured:
[1] = tested on: myocardial ischemia-reperfusion in Male Wistar rats; test: Myocardial infarction by left anterior descending coronary artery occlusion/reperfusion; format: in vivo; details: rat; 20 mg/kg i.v. 10 min before reperfusion; 1 h ischemia, 2 h reperfusion
Procedure: In another set of experiments, Male Wistar rats were anesthetized with thiopentone sodium (60 mg/kg, i.p.) and were subjected to myocardial infarction. The chest was opened at the fourth intercostal space and a 5.0 silk ligature was placed around the left anterior descending coronary artery for occlusion. Next, one hour of myocardial ischemia was performed, followed by 2 h reperfusion. Myocardial infarct size was quantified by tetrazolium staining.

[2] = tested on: endotoxin-induced lethality in a mouse model; test: Endotoxin-induced lethality (systemic inflammation); format: in vivo
Procedure: The compounds were given as oral gavage at 10 mg/kg, twice a day.

[3] = target: PARS (Mus musculus, UniProt P11103); test: PARS inhibition by nucleoside derivatives (in vitro inflammation models); format: cell-based
Sequence of PARS (P11103 whole entry): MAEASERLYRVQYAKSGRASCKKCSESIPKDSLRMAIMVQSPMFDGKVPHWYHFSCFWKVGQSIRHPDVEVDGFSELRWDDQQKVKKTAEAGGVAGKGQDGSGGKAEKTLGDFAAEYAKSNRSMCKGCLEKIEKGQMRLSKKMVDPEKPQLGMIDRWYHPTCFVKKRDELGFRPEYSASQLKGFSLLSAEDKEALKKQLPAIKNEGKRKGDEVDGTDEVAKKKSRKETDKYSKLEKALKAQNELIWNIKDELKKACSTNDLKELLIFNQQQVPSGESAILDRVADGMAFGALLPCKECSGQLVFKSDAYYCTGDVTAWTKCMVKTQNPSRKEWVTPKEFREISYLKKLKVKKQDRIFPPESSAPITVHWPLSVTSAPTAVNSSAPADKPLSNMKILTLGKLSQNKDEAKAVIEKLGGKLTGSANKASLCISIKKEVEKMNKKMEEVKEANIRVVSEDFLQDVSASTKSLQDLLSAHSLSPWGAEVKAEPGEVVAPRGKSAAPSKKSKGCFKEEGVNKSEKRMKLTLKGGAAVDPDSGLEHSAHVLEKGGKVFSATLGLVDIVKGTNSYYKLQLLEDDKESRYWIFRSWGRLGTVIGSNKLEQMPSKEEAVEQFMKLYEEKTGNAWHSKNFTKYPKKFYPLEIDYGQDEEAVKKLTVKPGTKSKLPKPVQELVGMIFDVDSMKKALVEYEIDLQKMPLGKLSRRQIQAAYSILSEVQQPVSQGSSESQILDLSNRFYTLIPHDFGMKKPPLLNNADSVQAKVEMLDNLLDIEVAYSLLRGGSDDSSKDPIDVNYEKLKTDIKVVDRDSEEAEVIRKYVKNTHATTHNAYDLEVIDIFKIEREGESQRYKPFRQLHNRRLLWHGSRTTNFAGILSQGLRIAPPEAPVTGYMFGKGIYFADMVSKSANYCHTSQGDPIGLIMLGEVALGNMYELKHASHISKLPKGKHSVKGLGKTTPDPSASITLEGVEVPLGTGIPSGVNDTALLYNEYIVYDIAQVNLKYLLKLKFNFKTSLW
From the text: For example, conjugates of adenosine derivatives were investigated for PARS inhibition.

[4] = tested on: rat model of middle cerebral artery occlusion/reperfusion; test: Middle cerebral artery occlusion/reperfusion; format: in vivo; details: 2 h occlusion, 24 h reperfusion, 10 mg/kg i.v. then 10 mg/kg/h, tetrazolium staining
Procedure: Occlusion lasted for 2 hours, followed by reperfusion for 24 hours. Infarct size was quantified with tetrazolium staining and survival and neurological scores were monitored. The compounds were administered at 10 mg/kg i.v. 5 min before the start of reperfusion in one group, and continued at a rate of 10 mg/kg/h infusion during the reperfusion. Vehicle-treated animals (control) developed a >50% mortality over 24 hours, whereas <10% of the animals died in the drug treated groups. The compounds tested reduced the size of brain infarction by 64±2 and 57±3%, respectively.

[5] = tested on: mouse model of gut ischemia-reperfusion; test: Gut ischemia-reperfusion by ligation and release of superior mesenteric artery; FD4 gut permeability in everted gut sacks; details: 10 mg/kg i.v. 10 min prior to reperfusion
Procedure: In order to examine the efficacy of the compounds of the invention in ischemia-reperfusion conditions, the effect of selected compounds in a local model of reperfusion injury was examined. […] The artery was occluded for 45 min, followed by reperfusion for 1 h. Following the end of the reperfusion, gut permeability was measured with the fluorescein isothiocyanate-conjugated dextran (FD4) method in everted gut sacks.
The artery was occluded for 45 min, followed by reperfusion for 1 h. Following the end of the reperfusion, gut permeability was measured with the FD4 method in everted gut sacks.

## Nc1ncnc2c1ncn2C1OC(C(=O)N2CCN(CC(=O)Nc3cccc4c3CNC4=O)CC2)C(O)C1O (stereo not shown) [Compound 130]
[1]
  reduction of myocardial infarct size: 35±7%
[2]
  protection against endotoxin-induced lethality: protected against endotoxin-induced lethality
[3]
  PARS inhibitory activity (in words): most potent
[3]; 10 μM, values marked *, asterisk not explained, read-out: Inhibition at 10 μM (values marked *)
  inhibition at 10 µM: 97%
[3]; 200 nm, printed in the 100 μM column
  Inhibition at 200 nm: 100 at 200 nm
[4]
  reduction of the size of brain infarction: 57±3%
[5]
  reduction of the increase in the permeability of the gut: 74%
